Measured values reported in US4048299A, “Anticaries confectionaries and oral health products” (William Wrigley, Jr. Co., priority 1970, dated 1977).

Assays:
[1] = tested on: Lactobacillus casei ATCC 4646; test: Acid production inhibition by aldehydes in product vehicles, broth-tube technique; type: cell-based; conditions: 1 to 5 percent aldehyde
Description: (§1) Other in vitro evaluations utilized a broth tube analysis of representative anticaries aldehydes incorporated in the vehicles of this invention against cultures of acid producing microorganisms normally present in the mouth. Standard laboratory procedures were utilized throughout to evaluate the acid production inhibition and growth inhibition over the incubation time of up to 24 hours.
(§2) (a)Measured by broth-tube technique.
(§3) In formulating Tables XIII - XIX representative aldehydes having anticaries activity were selected from those tested as summarized in Tables I - XII and incorporated in seven representative types of products. The products included dextrose and sucrose syrups, obtained commercially in food grades, and compressed candy, hard candy, mouthwash, toothpaste and toothpowder. The five latter products also employed food grade and reagent grade ingredients. These products were formulated by well-known and representative recipes for each type of product. The products were formed in batches of approximately 1 pound or 1 liter and contained all their normal constitutents. Aliquots of each products were blended with one of each of the representative aldehydes selected except in the case of hard candy.
(§4) Aliquots of the aldehyde incorporating sugar syrups, confectioneries, and mouthwash formulations were added directly to assay flasks and mixed or dissolved as required. Aqueous extracts of the aldehyde incorporated in toothpaste and toothpowder were prepared and aliquots of the filtrate were added to the assay flasks.
(§5) The assay flasks contained the necessary components for a normal growth response from the organisms employed, Lactobacillus casei ATCC 4646, originally a human oral isolate, Streptococcus spp. K1-R, human caries isolate, and a mixed oral microbial population obtained fresh from saliva on the morning prior to the initiation of each assay incubation period. The assay flask medium was dissolved in distilled water in which was added an equal volume of filter sterilized human saliva to yield a 50 percent saliva-medium combination. The medium contained all normal ingredients such as yeast extract, proteose peptone number 3 (a proprietary formula of Difco Laboratories, Detroit, Michigan) monopotassium phosphate, Tween 80 (polyoxethylene sorbitan monoleate) and water, except a carbon source. This was supplied by the aliquot of the sucrose syrup, dextrose syrup, sucrose in the compressed candy tablet and sucrose in the hard candy product. In addition, an aliquot of sucrose solution concentrate was added to the assay flask as a carbon source for evaluation of mouthwash, toothpaste, and toothpowder vehicles.
(§6) The lower aldehydes such as glycolaldehyde, crystalline dimer; pyruvaldehyde, aqueous syrup; d,1-glyceraldehyde solution and crystalline dimer; and glutaraldehyde, employed as a 50 percent aqueous solution, are water soluble and were employed directly either as powders or aqueous solutions. The C8 to C12, longer chain aliphatic aldehydes, of which decyl and dodecyl (lauric) were selected as representative, are oil soluble and are prepared and added to the products as emulsions with four parts of Tween 20, polyoxethylene sorbitan monolaurate. The aldehyde concentrations in the products were randomly chosen between 1 to 5 percent by weight. Limits for the concentrations were selected to coincide with the data presented in Tables I - XII in order to verify that the anticaries activity of the aldehydes in the product vehicles tested was equivalent to the activity previously established for the aldehydes alone.

[2] = tested on: Mixed human oral microorganisms; test: as above; type: cell-based; conditions: 1 to 5 percent aldehyde
Description: as §1, §2, §3, §4, §5, §6

Streptococcus spp. KI-R = test: as above; type: cell-based; conditions: 1 to 5 percent aldehyde
Description: as §1, §2, §3, §4, §5, §6

[3] = tested on: Mixed human oral microorganisms; test: Growth inhibition by aldehydes in product vehicles, pour-plate technique; type: cell-based; conditions: 1 to 5 percent aldehyde
Description: as §1
(b)Measured by pour-plate technique.
as §3, §4, §5, §6

[4] = In vivo caries evaluation, laboratory animals (summary); conditions: one percent level in diet
Text: (§7) Standard laboratory techniques were used to complie the data presented. In each case the aldehyde was incorporated into each specimen's food in a one percent, by weight, quantity, over a period of several weeks. In all cases, caries reduction was noted.
(§8) The aldehydes tested in vivo were pyruvaldehyde, d,1-glyceraldehyde, crystalline dimer, glycolaldehyde, octanaldehyde, nonanaldehyde, decanaldehyde, undecylenic aldehyde, and lauric aldehyde. The polyaldehydes tested were dialdehyde starch, dialdehyde starch 50 percent oxidized, dialdehyde starch 90 percent oxidized, and dialdehyde galactomannan gum.

oral microorganisms = test: Acid production inhibition in vitro (summary); type: cell-based; conditions: in words, summary of tables
Description: as §1

Lactobacillus casei = test: Acid production inhibition, broth-tube technique; conditions: single agent
Description: The data was compiled through well-known broth tube analysis techniques.

[5] = In vivo caries evaluation, Osborne-Mendel strain 1 rat; set-up: species or system rat (Osborne-Mendel strain 1); Caries Score, Mean Incidence / Caries Score, Mean Extent: scale not given here; conditions: Table II, 90 days
Text: as §7, §8
^(a) Agents were incorporated in the diet at a 1 percent level.

[6] = in compressed candy tablet, 2 h incubation
[7] = in compressed candy tablet, 5 h incubation
[8] = in compressed candy tablet, 24 h incubation
[9] = in dextrose syrup, 2 h incubation
[10] = in dextrose syrup, 5 h incubation
[11] = in dextrose syrup, 24 h incubation
[12] = in sucrose syrup, 2 h incubation
[13] = in sucrose syrup, 5 h incubation
[14] = in sucrose syrup, 24 h incubation
[15] = in tooth powder (aqueous extract), 2 h incubation
[16] = in tooth powder (aqueous extract), 5 h incubation
[17] = in tooth powder (aqueous extract), 24 h incubation
[18] = in toothpaste (aqueous extract), 2 h incubation
[19] = in toothpaste (aqueous extract), 5 h incubation
[20] = in toothpaste (aqueous extract), 24 h incubation
[21] = Student's test, 95 percent confidence limit

SMILES: O=C[C@H](O)CO (racemic) [d,1-Glyceraldehyde]
- Acid Production Inhibition [1, 6]: 0 Per Cent
- Acid Production Inhibition [1, 7]: 0 Per Cent
- Acid Production Inhibition [1, 8]: 73 Per Cent
- Acid Production Inhibition [1, 9]: 57 Per Cent
- Acid Production Inhibition [1, 10]: 33 Per Cent
- Acid Production Inhibition [1, 11]: 89 Per Cent
- Acid Production Inhibition [1, 12]: 0 Per cent
- Acid Production Inhibition [1, 13]: 30 Per cent
- Acid Production Inhibition [1, 14]: 79 Per cent
- Acid Production Inhibition [1, 15]: 0 Per cent
- Acid Production Inhibition [1, 16]: 0 Per cent
- Acid Production Inhibition [1, 17]: 84 Per cent
- Acid Production Inhibition [1, 18]: 0 Per cent
- Acid Production Inhibition [1, 19]: 0 Per cent
- Acid Production Inhibition [1, 20]: 0 Per cent
- Acid Production Inhibition [2, 6]: 0 Per Cent
- Acid Production Inhibition [2, 7]: 91 Per Cent
- Acid Production Inhibition [2, 8]: 87 Per Cent
- Acid Production Inhibition [2, 9]: 8 Per Cent
- Acid Production Inhibition [2, 10]: 90 Per Cent
- Acid Production Inhibition [2, 11]: 77 Per Cent
- Acid Production Inhibition ([2]; in mouthwash, 2 h incubation): 0 Per cent
- Acid Production Inhibition ([2]; in mouthwash, 5 h incubation): 91 Per cent
- Acid Production Inhibition ([2]; in mouthwash, 24 h incubation): 39 Per cent
- Acid Production Inhibition [2, 12]: 72 Per cent
- Acid Production Inhibition [2, 13]: 93 Per cent
- Acid Production Inhibition [2, 14]: 16 Per cent
- Acid Production Inhibition [2, 15]: 0 Per cent
- Acid Production Inhibition [2, 16]: 48 Per cent
- Acid Production Inhibition [2, 17]: 18 Per cent
- Acid Production Inhibition [2, 18]: 0 Per cent
- Acid Production Inhibition [2, 19]: 0 Per cent
- Acid Production Inhibition [2, 20]: 0 Per cent
- Acid Production Inhibition (Streptococcus spp. KI-R; [6]): 0 Per Cent
- Acid Production Inhibition (Streptococcus spp. KI-R; [7]): 25 Per Cent
- Acid Production Inhibition (Streptococcus spp. KI-R; [8]): 84 Per Cent
- Acid Production Inhibition (Streptococcus spp. KI-R; [9]): 48 Per Cent
- Acid Production Inhibition (Streptococcus spp. KI-R; [10]): 86 Per Cent
- Acid Production Inhibition (Streptococcus spp. KI-R; [11]): 82 Per Cent
- Acid Production Inhibition (Streptococcus spp. KI-R; in mouthwash, 2 h incubation): 0 Per cent
- Acid Production Inhibition (Streptococcus spp. KI-R; in mouthwash, 5 h incubation): 0 Per cent
- Acid Production Inhibition (Streptococcus spp. KI-R; in mouthwash, 24 h incubation): 86 Per cent
- Acid Production Inhibition (Streptococcus spp. KI-R; [12]): 69 Per cent
- Acid Production Inhibition (Streptococcus spp. KI-R; [13]): 88 Per cent
- Acid Production Inhibition (Streptococcus spp. KI-R; [14]): 86 Per cent
- Acid Production Inhibition (Streptococcus spp. KI-R; [15]): 0 Per cent
- Acid Production Inhibition (Streptococcus spp. KI-R; [16]): 0 Per cent
- Acid Production Inhibition (Streptococcus spp. KI-R; [17]): 0 Per cent
- Acid Production Inhibition (Streptococcus spp. KI-R; [18]): 0 Per cent
- Acid Production Inhibition (Streptococcus spp. KI-R; [19]): 0 Per cent
- Acid Production Inhibition (Streptococcus spp. KI-R; [20]): 0 Per cent
- Growth Inhibition [3, 6]: 99.7 Per Cent
- Growth Inhibition [3, 7]: 99.99 Per Cent
- Growth Inhibition [3, 8]: N.S.
- Growth Inhibition [3, 9]: 97.5 Per Cent
- Growth Inhibition [3, 10]: > 99.99 Per Cent
- Growth Inhibition [3, 11]: 0 Per Cent
- Growth Inhibition ([3]; in mouthwash, 2 h incubation): 95.0 Per cent
- Growth Inhibition ([3]; in mouthwash, 5 h incubation): 99.98 Per cent
- Growth Inhibition ([3]; in mouthwash, 24 h incubation): N.S.
- Growth Inhibition [3, 12]: 96 Per cent
- Growth Inhibition [3, 13]: 99.6 Per cent
- Growth Inhibition [3, 14]: 0 Per cent
- Growth Inhibition [3, 15]: N.S.
- Growth Inhibition [3, 16]: 99.3 Per cent
- Growth Inhibition [3, 17]: N.S.
- Growth Inhibition [3, 18]: 97 Per cent
- Growth Inhibition [3, 19]: N.S.
- Growth Inhibition [3, 20]: 100 Per cent
- Anticaries effect in laboratory animals [4]: significant anticaries effects
- Acid Production Inhibition (oral microorganisms): excellent acid production inhibition
- Acid Production Inhibition (Lactobacillus casei; 0.02 percent): 11%
- Acid Production Inhibition (Lactobacillus casei; 0.03 percent): 17%
- Acid Production Inhibition (Lactobacillus casei; 0.04 percent): 22%

SMILES: CCCCCCCCCC=O [Decanaldehyde]
- Caries Score, Mean Incidence ([5]; 1 percent in diet, RCD control 19.0 (octan-), 14.1 (nonan-), 17.6 (decan-), 22.3 (undecylenic)): 10.4
- Caries Score, Mean Extent ([5]; 1 percent in diet, RCD control 49.6 (octan-), 34.3 (nonan-), 46.0 (decan-), 54.6 (undecylenic)): 24.1
- Caries Extent Reduction, statistical evaluation [5, 21]: Significant
- Caries Incidence Reduction, statistical evaluation [5, 21]: Significant
- Acid Production Inhibition [1, 6]: 0 Per Cent
- Acid Production Inhibition [1, 7]: 67 Per Cent
- Acid Production Inhibition [1, 8]: 97 Per Cent
- Acid Production Inhibition [1, 9]: 67 Per Cent
- Acid Production Inhibition [1, 10]: 77 Per Cent
- Acid Production Inhibition [1, 11]: 96 Per Cent
- Acid Production Inhibition [1, 12]: 0 Per cent
- Acid Production Inhibition [1, 13]: 95 Per cent
- Acid Production Inhibition [1, 14]: 99 Per cent
- Acid Production Inhibition [1, 18]: 80 Per cent
- Acid Production Inhibition [1, 19]: 80 Per cent
- Acid Production Inhibition [1, 20]: 83 Per cent
- Acid Production Inhibition [2, 6]: 100 Per Cent
- Acid Production Inhibition [2, 7]: 100 Per Cent
- Acid Production Inhibition [2, 8]: 19 Per Cent
- Acid Production Inhibition [2, 9]: 0 Per Cent
- Acid Production Inhibition [2, 10]: 95 Per Cent
- Acid Production Inhibition [2, 11]: 91 Per Cent
- Acid Production Inhibition [2, 12]: 78 Per cent
- Acid Production Inhibition [2, 13]: 94 Per cent
- Acid Production Inhibition [2, 14]: 95 Per cent
- Acid Production Inhibition [2, 18]: 0 Per cent
- Acid Production Inhibition [2, 19]: 0 Per cent
- Acid Production Inhibition [2, 20]: 0 Per cent
- Acid Production Inhibition (Streptococcus spp. KI-R; [6]): 50 Per Cent
- Acid Production Inhibition (Streptococcus spp. KI-R; [7]): 85 Per Cent
- Acid Production Inhibition (Streptococcus spp. KI-R; [8]): 98 Per Cent
- Acid Production Inhibition (Streptococcus spp. KI-R; [9]): 35 Per Cent
- Acid Production Inhibition (Streptococcus spp. KI-R; [10]): 91 Per Cent
- Acid Production Inhibition (Streptococcus spp. KI-R; [11]): 89 Per Cent
- Acid Production Inhibition (Streptococcus spp. KI-R; [12]): 75 Per cent
- Acid Production Inhibition (Streptococcus spp. KI-R; [13]): 98 Per cent
- Acid Production Inhibition (Streptococcus spp. KI-R; [14]): 100 Per cent
- Acid Production Inhibition (Streptococcus spp. KI-R; [18]): 40 Per cent
- Acid Production Inhibition (Streptococcus spp. KI-R; [19]): 100 Per cent
- Acid Production Inhibition (Streptococcus spp. KI-R; [20]): 67 Per cent
- Growth Inhibition [3, 6]: > 99.99 Per Cent
- Growth Inhibition [3, 7]: > 99.99 Per Cent
- Growth Inhibition [3, 8]: 100 Per Cent
- Growth Inhibition [3, 9]: > 99.99 Per Cent
- Growth Inhibition [3, 10]: 100 Per Cent
- Growth Inhibition [3, 11]: 100 Per Cent
- Growth Inhibition [3, 12]: > 99.99 Per cent
- Growth Inhibition [3, 13]: > 99.99 Per cent
- Growth Inhibition [3, 14]: N.S.
- Growth Inhibition [3, 18]: N.S.
- Growth Inhibition [3, 19]: N.S.
- Growth Inhibition [3, 20]: 0 Per cent
- Anticaries effect in laboratory animals [4]: significant anticaries activity
